ChEMBL document CHEMBL3856207, “Kinetic, thermodynamic and structural analysis of tamiphosphor binding to neuraminidase of H1N1 (2009) pandemic influenza” (Eur J Med Chem, 2016)
Calls of active or inactive are those of the source. The calls are words filed in the database; no cut-off is given here.

test system: S2; test: Binding affinity to Influenza A virus (A/California/07/2009(H1N1)) recombinant wild type N-terminal FLAG-tagged neuraminidase catalytic domain transfected in Drosophila Schneider S2 cells at 76 to 93 uM by isothermal titration calorimetric method

Row | Structure (SMILES) | Activity
1 | CCC(CC)O[C@@H]1C=C(C(=O)O)C[C@H](N)[C@H]1NC(C)=O [OSELTAMIVIR CARBOXYLATE] | Active
2 | CCC(CC)O[C@@H]1C=C(P(=O)(O)O)C[C@H](N)[C@H]1NC(C)=O [TAMIPHOSPHOR] | Active

test system: not listed separately; test: Inhibition of Influenza A virus (A/California/07/2009(H1N1)) recombinant wild type N-terminal FLAG-tagged neuraminidase ectodomain (82 to 469 residues) transfected in Drosophila Schneider S2 cells using 4-MUNANA as substrate after 20 mins by fluorometric method

Row | Structure (SMILES) | Ki [nM]
3 | CCC(CC)O[C@@H]1C=C(P(=O)(O)O)C[C@H](NC(=N)N)[C@H]1NC(C)=O | 140
4 | CCC(CC)O[C@@H]1C=C(P(=O)(O)OC)C[C@H](N)[C@H]1NC(C)=O | 39
5 | CCC(CC)O[C@@H]1C=C(C(=O)O)C[C@H](NC(=N)N)[C@H]1NC(C)=O | 46
6 | CCC(CC)O[C@@H]1C=C(P(=O)(O)O)C[C@H](N)[C@H]1NC(C)=O [TAMIPHOSPHOR] | 26
